Our source for the IC50, DC50 and Dmax values is patent US20250214991A1 (Oncopia Therapeutics, Inc. d/b/a/ SK Life Science Labs, priority 2022, published 2025).

The target in one experiment is CRBN/DDB1 (Homo sapiens (Human), UniProt Q96SW2). In words: IC50 measurements for binding to CRBN/DDB1 (HTRF). The note with it: His tagged CRBN+DDB, Cy5-labeled Thalidomide probe, one hour. The essentials: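 Serially diluted compounds compete with a Cy5-labeled thalidomide tracer (60 nM) for His-tagged CRBN-DDB1 (2 nM), detected via anti-6His Tb cryptate (0.4 nM); buffer HEPES pH 7.5 with TCEP, Brij-35, NaCl, BSA. One-hour room-temperature incubation, HTRF signal read, IC50 by four-parameter curve.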
CRBN/DDB1, sequence (Q96SW2 whole entry, species assumed): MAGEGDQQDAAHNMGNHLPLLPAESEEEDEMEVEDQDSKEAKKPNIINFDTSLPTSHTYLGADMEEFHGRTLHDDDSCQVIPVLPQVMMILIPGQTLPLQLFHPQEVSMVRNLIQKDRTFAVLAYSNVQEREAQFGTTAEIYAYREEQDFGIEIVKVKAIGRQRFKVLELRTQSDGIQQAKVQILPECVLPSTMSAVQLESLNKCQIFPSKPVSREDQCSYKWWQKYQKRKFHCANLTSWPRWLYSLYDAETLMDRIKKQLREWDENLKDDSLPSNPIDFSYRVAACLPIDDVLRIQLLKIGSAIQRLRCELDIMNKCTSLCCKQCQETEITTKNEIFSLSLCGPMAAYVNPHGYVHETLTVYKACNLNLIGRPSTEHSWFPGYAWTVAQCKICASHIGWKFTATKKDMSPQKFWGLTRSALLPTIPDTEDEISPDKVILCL
CRBN/DDB1, sequence (Q16531 whole entry partner, species assumed): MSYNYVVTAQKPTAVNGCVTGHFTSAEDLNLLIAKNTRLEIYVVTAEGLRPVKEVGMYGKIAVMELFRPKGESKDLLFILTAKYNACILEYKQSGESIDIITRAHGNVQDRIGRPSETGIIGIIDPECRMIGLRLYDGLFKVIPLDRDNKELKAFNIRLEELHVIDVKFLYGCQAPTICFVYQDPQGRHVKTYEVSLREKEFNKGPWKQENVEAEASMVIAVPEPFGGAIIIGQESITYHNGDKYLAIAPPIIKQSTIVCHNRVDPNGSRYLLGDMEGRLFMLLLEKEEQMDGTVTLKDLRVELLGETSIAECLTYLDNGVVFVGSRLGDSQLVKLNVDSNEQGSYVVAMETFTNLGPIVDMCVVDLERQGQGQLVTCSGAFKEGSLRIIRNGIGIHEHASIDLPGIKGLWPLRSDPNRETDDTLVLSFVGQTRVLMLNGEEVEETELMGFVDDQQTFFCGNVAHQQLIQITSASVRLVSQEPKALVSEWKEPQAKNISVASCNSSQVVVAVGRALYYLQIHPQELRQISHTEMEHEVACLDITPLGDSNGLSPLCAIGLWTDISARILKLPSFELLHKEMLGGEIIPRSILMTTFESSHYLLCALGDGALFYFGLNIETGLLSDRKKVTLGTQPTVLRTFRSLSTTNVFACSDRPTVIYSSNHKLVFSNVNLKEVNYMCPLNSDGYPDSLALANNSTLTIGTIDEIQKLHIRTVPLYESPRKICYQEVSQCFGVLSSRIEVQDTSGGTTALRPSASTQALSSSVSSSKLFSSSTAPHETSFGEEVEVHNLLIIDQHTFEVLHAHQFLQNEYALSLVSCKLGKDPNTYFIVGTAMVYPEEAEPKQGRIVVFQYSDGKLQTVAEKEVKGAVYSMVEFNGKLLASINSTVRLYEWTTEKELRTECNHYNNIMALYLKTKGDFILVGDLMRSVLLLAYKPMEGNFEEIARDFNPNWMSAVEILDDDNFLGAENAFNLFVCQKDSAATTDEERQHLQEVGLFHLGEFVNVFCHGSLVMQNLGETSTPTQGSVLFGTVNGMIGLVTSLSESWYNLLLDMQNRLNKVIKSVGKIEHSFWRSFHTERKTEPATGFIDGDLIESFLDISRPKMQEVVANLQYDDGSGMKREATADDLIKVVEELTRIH

The target in the next experiment is IKZF2 (Homo sapiens (Human), UniProt Q96SW2+Q9UKS7). The experiment can be described thus: In vitro IKZF2 HiBit Assay (HEK293T Flp-in-HiBiT cells). Type of experiment: cell-based. As to conditions: HEK293T Flp-in-HiBiT cells, 6 hrs incubation; for DC50: read-out: IKZF2 HiBit DC50; for Dmax: HEK-293T, read-out: IKZF2 HiBit Dmax (%). The essentials: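 Remaining tagged Helios was read as lytic HiBiT/LgBiT luminescence normalized to DMSO, yielding binned DC50 and Dmax values. Treatment ran 6 h, with compounds at 11 three-fold doses diluted from 1 mM and 0.1% final DMSO. The cells were HEK293T Flp-in with CRISPR knock-in of HiBiT at the IKZF2 N-terminus.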
IKZF2, sequence (Q9UKS7 whole entry): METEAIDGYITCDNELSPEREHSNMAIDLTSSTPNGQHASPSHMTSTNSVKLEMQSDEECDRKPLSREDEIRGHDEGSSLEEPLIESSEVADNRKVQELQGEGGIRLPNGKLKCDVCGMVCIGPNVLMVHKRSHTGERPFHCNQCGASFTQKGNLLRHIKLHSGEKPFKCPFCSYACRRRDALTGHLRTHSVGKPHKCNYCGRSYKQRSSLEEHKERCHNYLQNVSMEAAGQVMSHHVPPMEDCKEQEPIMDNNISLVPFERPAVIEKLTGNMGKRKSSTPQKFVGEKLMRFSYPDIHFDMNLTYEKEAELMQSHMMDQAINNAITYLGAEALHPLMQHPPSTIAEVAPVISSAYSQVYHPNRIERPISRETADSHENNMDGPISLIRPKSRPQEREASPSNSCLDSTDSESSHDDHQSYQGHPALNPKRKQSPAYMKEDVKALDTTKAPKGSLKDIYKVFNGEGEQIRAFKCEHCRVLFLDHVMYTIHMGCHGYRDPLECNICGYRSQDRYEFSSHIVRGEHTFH
IKZF2, sequence (Q96SW2 whole entry): as the sequence (Q96SW2 whole entry, species assumed) above
IKZF2, sequence (Q16531 2-1140 partner): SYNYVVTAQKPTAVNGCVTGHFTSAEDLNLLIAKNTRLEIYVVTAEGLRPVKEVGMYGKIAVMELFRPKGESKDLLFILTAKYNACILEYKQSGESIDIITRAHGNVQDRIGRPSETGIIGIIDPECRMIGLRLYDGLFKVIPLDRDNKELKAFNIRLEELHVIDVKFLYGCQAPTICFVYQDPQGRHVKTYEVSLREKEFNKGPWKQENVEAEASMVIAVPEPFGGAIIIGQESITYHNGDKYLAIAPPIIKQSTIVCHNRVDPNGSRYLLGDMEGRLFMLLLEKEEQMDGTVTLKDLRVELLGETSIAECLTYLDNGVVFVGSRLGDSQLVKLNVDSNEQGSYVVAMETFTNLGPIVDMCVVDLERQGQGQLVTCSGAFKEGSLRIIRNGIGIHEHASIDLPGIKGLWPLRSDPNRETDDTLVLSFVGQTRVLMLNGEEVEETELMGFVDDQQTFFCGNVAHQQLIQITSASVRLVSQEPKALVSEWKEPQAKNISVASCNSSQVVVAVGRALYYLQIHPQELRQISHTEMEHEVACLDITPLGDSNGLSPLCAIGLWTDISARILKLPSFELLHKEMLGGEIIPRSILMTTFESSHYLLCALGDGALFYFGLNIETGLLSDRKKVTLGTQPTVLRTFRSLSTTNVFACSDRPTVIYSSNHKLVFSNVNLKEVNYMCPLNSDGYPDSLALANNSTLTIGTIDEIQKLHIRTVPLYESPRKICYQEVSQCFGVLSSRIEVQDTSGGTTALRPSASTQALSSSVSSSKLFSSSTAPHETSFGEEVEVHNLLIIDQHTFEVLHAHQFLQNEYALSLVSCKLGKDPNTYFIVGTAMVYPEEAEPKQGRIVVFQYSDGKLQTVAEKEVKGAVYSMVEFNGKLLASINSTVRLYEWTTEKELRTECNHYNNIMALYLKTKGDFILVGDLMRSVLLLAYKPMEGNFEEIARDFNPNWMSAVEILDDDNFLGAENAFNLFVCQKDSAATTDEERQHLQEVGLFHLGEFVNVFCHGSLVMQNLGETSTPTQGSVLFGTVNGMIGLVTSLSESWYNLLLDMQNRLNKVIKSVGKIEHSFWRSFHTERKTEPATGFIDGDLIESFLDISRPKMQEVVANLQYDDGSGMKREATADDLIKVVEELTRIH

The next experiment addresses IKZF1 (Homo sapiens (Human), UniProt Q13422+Q96SW2). The experiment can be described thus: In vitro IKZF1 HiBit Assay (HEK293T Flp-in-HiBiT-IKZF1 stable cell line). As to conditions: HEK293T Flp-in-HiBiT-IKZF1 stable cell line, 6 hrs incubation; for DC50: read-out: IKZF1 HiBit DC50; for Dmax: HEK-293T, read-out: IKZF1 HiBit Dmax (%). It is filed as cell-based. The essentials: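 Degradation was measured as loss of luminescence from the HiBiT-IKZF1 tag after 6 h compound treatment, with 0.1% final DMSO, in stable HEK293T Flp-in cells. Values were normalized to DMSO, giving the 50% degradation concentration and the maximal degradation range.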

IKZF1, sequence (Q13422 whole entry): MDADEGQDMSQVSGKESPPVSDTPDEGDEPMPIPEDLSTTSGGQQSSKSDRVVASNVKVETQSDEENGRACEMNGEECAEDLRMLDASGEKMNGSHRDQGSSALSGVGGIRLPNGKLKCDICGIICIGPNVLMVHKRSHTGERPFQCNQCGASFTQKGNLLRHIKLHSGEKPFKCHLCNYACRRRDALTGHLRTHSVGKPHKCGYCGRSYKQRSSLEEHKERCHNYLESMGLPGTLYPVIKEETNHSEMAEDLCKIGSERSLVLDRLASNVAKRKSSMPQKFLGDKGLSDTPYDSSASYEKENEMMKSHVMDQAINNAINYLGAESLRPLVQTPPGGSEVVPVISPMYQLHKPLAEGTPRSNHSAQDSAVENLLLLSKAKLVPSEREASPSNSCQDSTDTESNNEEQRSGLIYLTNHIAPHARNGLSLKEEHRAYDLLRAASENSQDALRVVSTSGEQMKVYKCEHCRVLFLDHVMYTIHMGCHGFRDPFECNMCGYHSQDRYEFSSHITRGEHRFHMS
IKZF1, sequence (Q96SW2 whole entry): as the sequence (Q96SW2 whole entry, species assumed) above
IKZF1, sequence (Q16531 2-1140 partner): as the sequence (Q16531 2-1140 partner) above

`Nc1n[nH]c2c(CN3CC(O)C3)cc(-c3ccc4c(c3)CN(C3CCC(=O)NC3=O)C4=O)nc12` (stereo not drawn) [Example 213, 3-(5-(3-amino-7-((3-hydroxyazetidin-1-yl)methyl)-1H-pyrazolo[4,3-b]pyridin-5-yl)-1-oxoisoindolin-2-yl) piperidine-2,6-dione] had an IC50 on CRBN/DDB1 of 100 to 500 nM. In addition, at IKZF2, the DC50 was in the range of 100 to 1000 nM and the Dmax was 40 to 60%. Moreover, at IKZF1, the DC50 fell in the range of 1 to 10 nM and the Dmax lay in the range of 20 to 40%.

For the compound `Nc1n[nH]c2c(CN3CC4COCC4C3)cc(-c3ccc4c(c3)CN(C3CCC(=O)NC3=O)C4=O)nc12` (stereo not drawn) [Example 214, 3-(5-(3-amino-7-((tetrahydro-1H-furo[3,4-c]pyrrol-5 (3H)-yl)methyl)-1H-pyrazolo[4,3-b]pyridin-5-yl)-1-oxoisoindolin-2-yl) piperidine-2,6-dione], the IC50 on CRBN/DDB1 fell in the range of 100 to 500 nM. In addition, on IKZF2, the DC50 fell in the range of 100 to 1000 nM and the Dmax is 60 to 80%. For the same compound, at IKZF1, the DC50 was greater than 10000 nM and the Dmax was less than 20%.

At CRBN/DDB1, `O=C1CCC(N2Cc3cc(-c4nc(CN5CCCC5)c5ccn(C6CCC6)c5n4)ccc3C2=O)C(=O)N1` (stereo not drawn) [Example 217, 3-(5-(7-cyclobutyl-4-(pyrrolidin-1-ylmethyl)-7H-pyrrolo[2,3-d]pyrimidin-2-yl)-1-oxoisoindolin-2-yl) piperidine-2,6-dione] had an IC50 of 500 to 1000 nM. At IKZF2, the DC50 fell in the range of 1 to 10 nM and the Dmax lay within 60 to 80%. In addition, on IKZF1, the DC50 was greater than 10000 nM and the Dmax was less than 20%.

Take `Cn1ccc2c(O[C@@H]3CCNC3)cc(-c3ccc4c(c3)CN([C@H]3CCC(=O)NC3=O)C4=O)nc21` [Example 219, (S)-3-(5-(1-methyl-4-(((R)-pyrrolidin-3-yl)oxy)-1H-pyrrolo[2,3-b]pyridin-6-yl)-1-oxoisoindolin-2-yl) piperidine-2,6-dione]: the IC50 on CRBN/DDB1 was 1000 to 5000 nM. Further, at IKZF2, the DC50 was in the range of 10 to 100 nM and the Dmax lay within 40 to 60%. At IKZF1, the DC50 was in the range of 100 to 1000 nM and the Dmax was 20 to 40%.

For `O=C1CCC(N2Cc3cc(-c4cc(CN5CCCC5)c5[nH]nc(C6CCC6)c5n4)ccc3C2=O)C(=O)N1` (stereo not drawn) [Example 224, 3-(5-(3-cyclobutyl-7-(pyrrolidin-1-ylmethyl)-1H-pyrazolo[4,3-b]pyridin-5-yl)-1-oxoisoindolin-2-yl) piperidine-2,6-dione], the IC50 at CRBN/DDB1 was in the range of 1000 to 5000 nM. The figures for the DC50 on IKZF2 and at IKZF1 were less than 1 nM and 10 to 100 nM, respectively. The Dmax on IKZF2 is 60 to 80%; at IKZF1 it was 40 to 60%.

Turning to `O=C1CCC(N2Cc3cc(-c4cc(CN5CCCC5)c5ncn(C6CS(=O)(=O)C6)c5n4)ccc3C2=O)C(=O)N1` (stereo not drawn) [Example 225, 3-(5-(3-(1,1-dioxidothietan-3-yl)-7-(pyrrolidin-1-ylmethyl)-3H-imidazo[4,5-b]pyridin-5-yl)-1-oxoisoindolin-2-yl) piperidine-2,6-dione], the IC50 on CRBN/DDB1 is 500 to 1000 nM. For the same compound, at IKZF2, the DC50 is less than 1 nM and the Dmax was in the range of 20 to 40%. For the same compound, on IKZF1, the DC50 is greater than 10000 nM and the Dmax was less than 20%.

The compound `Cn1ccc2c(C3CCCCN3)cc(-c3ccc4c(c3)CN([C@H]3CCC(=O)NC3=O)C4=O)nc21` (stereo partly drawn) [Example 231, (3S)-3-(5-(1-methyl-4-(piperidin-2-yl)-1H-pyrrolo[2,3-b]pyridin-6-yl)-1-oxoisoindolin-2-yl) piperidine-2,6-dione] displayed an IC50 on CRBN/DDB1 of 100 to 500 nM. On IKZF2, the DC50 was 10 to 100 nM and the Dmax was 40 to 60%. On IKZF1, the DC50 lay in the range of 1 to 10 nM and the Dmax fell in the range of 20 to 40%.

Take `O=C1CCC(N2Cc3cc(-c4cc(CN5CCCC5)c5c(n4)C(=O)NC5)ccc3C2=O)C(=O)N1` (stereo not drawn) [Example 233, 3-(1-ox0-5-(7-oxo-4-(pyrrolidin-1-ylmethyl)-6,7-dihydro-5H-pyrrolo[3,4-b]pyridin-2-yl)isoindolin-2-yl) piperidine-2,6-dione]: the IC50 on CRBN/DDB1 was 1000 to 5000 nM. The DC50 on IKZF2 and at IKZF1 was greater than 10000 nM in each case. The Dmax at IKZF2 and at IKZF1 was less than 20% each time.

`Nc1nn(C2COC2)c2c(CN3CCCC3)cc(-c3ccc4c(c3)CN(C3CCC(=O)NC3=O)C4=O)nc12` (stereo not drawn) [Example 234, 3-(5-(3-amino-1-(oxetan-3-yl)-7-(pyrrolidin-1-ylmethyl)-1H-pyrazolo[4,3-b]pyridin-5-yl)-1-oxoisoindolin-2-yl) piperidine-2,6-dione]: on CRBN/DDB1, the IC50 was in the range of 1000 to 5000 nM. Further, on IKZF2, the DC50 is 10 to 100 nM and the Dmax lay in the range of 60 to 80%. Besides, on IKZF1, the DC50 was in the range of 1000 to 10000 nM and the Dmax was 20 to 40%.

As for `COc1n[nH]c2c(CN3CCCC3)cc(-c3ccc4c(c3)CN(C3CCC(=O)NC3=O)C4=O)nc12` (stereo not drawn) [Example 235, 3-(5-(3-methoxy-7-(pyrrolidin-1-ylmethyl)-1H-pyrazolo[4,3-b]pyridin-5-yl)-1-oxoisoindolin-2-yl) piperidine-2,6-dione], on CRBN/DDB1, the IC50 was 5000 to 10000 nM. Also, at IKZF2, the DC50 lay within 1 to 10 nM and the Dmax fell in the range of 60 to 80%. In addition, on IKZF1, the DC50 was 100 to 1000 nM and the Dmax was 20 to 40%.

At CRBN/DDB1, `CC(C)Oc1n[nH]c2c(CN3CCCC3)cc(-c3ccc4c(c3)CN(C3CCC(=O)NC3=O)C4=O)nc12` (stereo not drawn) [Example 238, 3-(5-(3-isopropoxy-7-(pyrrolidin-1-ylmethyl)-1H-pyrazolo[4,3-b]pyridin-5-yl)-1-oxoisoindolin-2-yl) piperidine-2,6-dione] yielded an IC50 of 1000 to 5000 nM. Besides, at IKZF2, the DC50 was less than 1 nM and the Dmax is 60 to 80%. At IKZF1, the DC50 was greater than 10000 nM and the Dmax was less than 20%.

At CRBN/DDB1, `CC(C)n1ccc2c(CN3CCCC3)cc(-c3ccc4c(c3)CN(C3CCC(=O)NC3=O)C4=O)nc21` (stereo not drawn) [Example 299, 3-(5-(1-isopropyl-4-(pyrrolidin-1-ylmethyl)-1H-pyrrolo[2,3-b]pyridin-6-yl)-1-oxoisoindolin-2-yl) piperidine-2,6-dione] gave an IC50 of 500 to 1000 nM. In addition, the DC50 was 1 to 10 nM at IKZF2 and greater than 10000 nM on IKZF1. Besides, the results for the Dmax at IKZF2 and on IKZF1 were 60 to 80% and less than 20%, respectively.

On CRBN/DDB1, `Cn1ccc2c(CN3CCC(S(C)(=O)=O)CC3)cc(-c3ccc4c(c3)CN(C3CCC(=O)NC3=O)C4=O)nc21` (stereo not drawn) [Example 300, 3-(5-(1-methyl-4-((4-(methylsulfonyl)piperidin-1-yl)methyl)-1H-pyrrolo[2,3-b]pyridin-6-yl)-1-oxoisoindolin-2-yl) piperidine-2,6-dione] had an IC50 of 1000 to 5000 nM. Besides, the DC50 at IKZF2 was 10 to 100 nM; at IKZF1, greater than 10000 nM. Moreover, the Dmax on IKZF2 was 60 to 80%; on IKZF1 it was less than 20%.

In turn, `Cn1ccc2c(CN3CCC(F)CC3)cc(-c3ccc4c(c3)CN(C3CCC(=O)NC3=O)C4=O)nc21` (stereo not drawn) [Example 301, 3-(5-(4-((4-fluoropiperidin-1-yl)methyl)-1-methyl-1H-pyrrolo[2,3-b]pyridin-6-yl)-1-oxoisoindolin-2-yl) piperidine-2,6-dione] showed an IC50 at CRBN/DDB1 of 1000 to 5000 nM. Further, at IKZF2, the DC50 was less than 1 nM and the Dmax was greater than 80%. For the same compound, on IKZF1, the DC50 lay within 10 to 100 nM and the Dmax was in the range of 20 to 40%.

Consider `Cn1ccc2c(CN3CCCCCC3)cc(-c3ccc4c(c3)CN(C3CCC(=O)NC3=O)C4=O)nc21` (stereo not drawn) [Example 302, 3-(5-(4-(azepan-1-ylmethyl)-1-methyl-1H-pyrrolo[2,3-b]pyridin-6-yl)-1-oxoisoindolin-2-yl) piperidine-2,6-dione], for which the IC50 on CRBN/DDB1 lay within 1000 to 5000 nM. On IKZF2, the DC50 is less than 1 nM and the Dmax was greater than 80%. Moreover, at IKZF1, the DC50 was in the range of 1 to 10 nM and the Dmax fell in the range of 20 to 40%.

The compound `Cn1ccc2c(CN3CCC(O)C3)cc(-c3ccc4c(c3)CN(C3CCC(=O)NC3=O)C4=O)nc21` (stereo not drawn) [Example 303, 3-(5-(4-((3-hydroxypyrrolidin-1-yl)methyl)-1-methyl-1H-pyrrolo[2,3-b]pyridin-6-yl)-1-oxoisoindolin-2-yl) piperidine-2,6-dione] returned an IC50 on CRBN/DDB1 of 1000 to 5000 nM. For the same compound, on IKZF2, the DC50 was in the range of 1 to 10 nM and the Dmax is greater than 80%. Moreover, at IKZF1, the DC50 lay within 10 to 100 nM and the Dmax was in the range of 20 to 40%.

Consider `Cn1ccc2c(CN3CCC(F)C3)cc(-c3ccc4c(c3)CN(C3CCC(=O)NC3=O)C4=O)nc21` (stereo not drawn) [Example 304, 3-(5-(4-((3-fluoropyrrolidin-1-yl)methyl)-1-methyl-1H-pyrrolo[2,3-b]pyridin-6-yl)-1-oxoisoindolin-2-yl) piperidine-2,6-dione], for which the IC50 on CRBN/DDB1 lay within 1000 to 5000 nM. For the same compound, at IKZF2, the DC50 is 1 to 10 nM and the Dmax is greater than 80%. At IKZF1, the DC50 is greater than 10000 nM and the Dmax is less than 20%.

`Cn1ccc2c(CN3CCC(O)CC3)cc(-c3ccc4c(c3)CN(C3CCC(=O)NC3=O)C4=O)nc21` (stereo not drawn) [Example 305, 3-(5-(4-((4-hydroxypiperidin-1-yl)methyl)-1-methyl-1H-pyrrolo[2,3-b]pyridin-6-yl)-1-oxoisoindolin-2-yl) piperidine-2,6-dione]: the IC50 at CRBN/DDB1 lay in the range of 1000 to 5000 nM. Also, at IKZF2, the DC50 was 1 to 10 nM and the Dmax was greater than 80%. Moreover, on IKZF1, the DC50 is greater than 10000 nM and the Dmax was less than 20%.
